Columns and labels:
RXR = details: from the literature; cited from earlier work
CTCL cells = assay: DNA microarray gene expression analysis in CTCL cells; format: cell-based, human; details: 4-hour treatment, versus ethanol vehicle control
Excerpt: DNA microarray analysis is a method to assess genome-wide gene expression by simultaneously quantitating mRNA levels from all or a subset of genes in a genome and comparing these levels between a control and an experimental sample. These changes are compared, such as in as wild type versus mutant strains or cells with no treatment compared to cells treated with a reagent. RNA is extracted from the two cell types, and either converted to cDNA or amplified to cRNA, and then this message pool is used to assess gene expression changes. Both pools of labeled message are hybridized to a DNA microarray (or “gene chip”). These microarrays have all genes in the genome spotted onto the array in a precise fashion, such that this chip experiment becomes a genome-wide northern blot, assaying the message levels of all genes in the cells. Since the control and the experimental are hybridized to the same chip, there can be direct comparisons performed between the starting mRNA levels of the two, looking for genes that are under or over expressed in the experimental as compared to the control, analyzing the intensity of the hybridization of both cDNA pools.
The total RNA will be isolated from human CTCL cells, either untreated or treated with bexarotene or the appropriate analog. The RNA quality and integrity will be tested before hybridization using denaturing gel electrophoresis as well as reverse transcription followed by PCR. Once high quality RNA is isolated, labeled cRNA can be generated with the Genisphere 350 kit. Microarrays are readily available for such tests, for example, human microarrays can be obtained from Washington University St. Louis (Human HEEBO microarrays), or alternatively from the Toronto Microarray Centre (Toronto, Canada).
CTCL cells were treated bexarotene or ethanol vehicle control and total RNA was extracted after 4-hour treatment using the BioRad Aurum Total RNA Mini kit. Total RNA extracted was utilized to produce cRNA using a Genisphere 350 kit and was used to hybridize human HEEBO microarray slides obtained from GCAT (Genome Consortium for Active Teaching). The Genisphere 350 kit high sensitivity protocol was used and representative results were obtained (data not shown). […] Likewise, there was a 2.9-fold downregulation of REEP, a gene that occurs in a deleted segment of human 5q31 in malignant myeloid diseases; and 2.6-fold downregulation of RAC GAP1, a GTPase activating protein of RAC, a protein required for malignant cell movement106; and 2.5-fold downregulation of karyopherin alpha 1 (importing alpha 5), a protein required for STAT1 import into the nucleus. […]

SMILES	reported / documented RXR activity (RXR)	downregulation of RAC GAP1 (CTCL cells) [fold]	downregulation of REEP (CTCL cells) [fold]	downregulation of karyopherin alpha 1 (importing alpha 5) (CTCL cells) [fold]	upregulation of death associated protein kinase 3 (CTCL cells) [fold]	upregulation of endothelin converting enzyme 1 (CTCL cells) [fold]	upregulation of urocortin (CTCL cells) [fold]
Cc1cc2c(cc1C1(c3ccc(C(=O)O)cc3)CC1)C(C)(C)CCC2(C)C [Compound 105]	potent, RXR-selective agonists						
CC(/C=C/C1(c2cc3c(cc2C)C(C)(C)CCC3(C)C)CC1)=C\C(=O)O [Compound 106]	potent, RXR-selective agonists						
C=C(c1ccc(C(=O)O)cc1)c1cc2c(cc1C)C(C)(C)CCC2(C)C [bexarotene]		2.6	2.9	2.5	4.3	4.6	3.5

Reference: patent US9174917B2, “Bexarotene analogs” (Arizona Board of Regents on Behalf of Arizona State …, priority 2010, dated 2015)
